Results reported in BigSolDB 2.1.

`O=[N+]([O-])c1cn[nH]c1` showed a solubility (mole fraction) (in THF, 288.15 K) of 0.00413, a solubility (mole fraction) (in THF, 293.15 K) of 0.00496 and a solubility (mole fraction) (in THF, 298.15 K) of 0.00592. It also gave a solubility (mole fraction) (in THF, 303.15 K) of 0.00722, a solubility (mole fraction) (in THF, 308.15 K) of 0.0089 and a solubility (mole fraction) (in THF, 313.15 K) of 0.011. The solubility (mole fraction) (in THF, 318.15 K) was 0.0134, the solubility (mole fraction) (in THF, 323.15 K) was 0.017 and the solubility (mole fraction) (in THF, 328.15 K) was 0.022. For the same compound, the solubility (mole fraction) (in acetone, 288.15 K) was 0.0381, the solubility (mole fraction) (in acetone, 293.15 K) was 0.0405 and the solubility (mole fraction) (in acetone, 298.15 K) was 0.0423. It also gave a solubility (mole fraction) (in acetone, 303.15 K) of 0.045, a solubility (mole fraction) (in acetone, 308.15 K) of 0.047 and a solubility (mole fraction) (in acetone, 313.15 K) of 0.0495. The solubility (mole fraction) (in acetone, 318.15 K) was 0.0525, the solubility (mole fraction) (in acetone, 323.15 K) was 0.0553 and the solubility (mole fraction) (in acetone, 328.15 K) was 0.0582. The solubility (mole fraction) (in acetonitrile, 288.15 K) was 0.0391, the solubility (mole fraction) (in acetonitrile, 293.15 K) was 0.0457 and the solubility (mole fraction) (in acetonitrile, 298.15 K) was 0.0529. The solubility (mole fraction) (in acetonitrile, 303.15 K) was 0.0647, the solubility (mole fraction) (in acetonitrile, 308.15 K) was 0.0776 and the solubility (mole fraction) (in acetonitrile, 313.15 K) was 0.0906. The solubility (mole fraction) (in acetonitrile, 318.15 K) was 0.108, the solubility (mole fraction) (in acetonitrile, 323.15 K) was 0.124 and the solubility (mole fraction) (in acetonitrile, 328.15 K) was 0.135. For the same compound, the solubility (mole fraction) (in ethanol, 288.15 K) was 0.101, the solubility (mole fraction) (in ethanol, 293.15 K) was 0.113 and the solubility (mole fraction) (in ethanol, 298.15 K) was 0.128. For the same compound, the solubility (mole fraction) (in ethanol, 303.15 K) was 0.147, the solubility (mole fraction) (in ethanol, 308.15 K) was 0.168 and the solubility (mole fraction) (in ethanol, 313.15 K) was 0.197. The solubility (mole fraction) (in ethanol, 318.15 K) was 0.232, the solubility (mole fraction) (in ethanol, 323.15 K) was 0.27 and the solubility (mole fraction) (in ethanol, 328.15 K) was 0.31. The solubility (mole fraction) (in ethyl acetate, 288.15 K) was 0.00483, the solubility (mole fraction) (in ethyl acetate, 293.15 K) was 0.00609 and the solubility (mole fraction) (in ethyl acetate, 298.15 K) was 0.00759. It also gave a solubility (mole fraction) (in ethyl acetate, 303.15 K) of 0.00946, a solubility (mole fraction) (in ethyl acetate, 308.15 K) of 0.0118 and a solubility (mole fraction) (in ethyl acetate, 313.15 K) of 0.0144. For the same compound, the solubility (mole fraction) (in ethyl acetate, 318.15 K) was 0.0176, the solubility (mole fraction) (in ethyl acetate, 323.15 K) was 0.0214 and the solubility (mole fraction) (in ethyl acetate, 328.15 K) was 0.0261. For the same compound, the solubility (mole fraction) (in isobutanol, 288.15 K) was 0.0549, the solubility (mole fraction) (in isobutanol, 293.15 K) was 0.0648 and the solubility (mole fraction) (in isobutanol, 298.15 K) was 0.0762. For the same compound, the solubility (mole fraction) (in isobutanol, 303.15 K) was 0.0908, the solubility (mole fraction) (in isobutanol, 308.15 K) was 0.107 and the solubility (mole fraction) (in isobutanol, 313.15 K) was 0.132. The solubility (mole fraction) (in isobutanol, 318.15 K) was 0.161, the solubility (mole fraction) (in isobutanol, 323.15 K) was 0.195 and the solubility (mole fraction) (in isobutanol, 328.15 K) was 0.247. The solubility (mole fraction) (in isopentanol, 288.15 K) was 0.0629, the solubility (mole fraction) (in isopentanol, 293.15 K) was 0.0732 and the solubility (mole fraction) (in isopentanol, 298.15 K) was 0.0854. It also gave a solubility (mole fraction) (in isopentanol, 303.15 K) of 0.106, a solubility (mole fraction) (in isopentanol, 308.15 K) of 0.12 and a solubility (mole fraction) (in isopentanol, 313.15 K) of 0.143. The solubility (mole fraction) (in isopentanol, 318.15 K) was 0.173, the solubility (mole fraction) (in isopentanol, 323.15 K) was 0.213 and the solubility (mole fraction) (in isopentanol, 328.15 K) was 0.262. The solubility (mole fraction) (in isopropanol, 288.15 K) was 0.0481, the solubility (mole fraction) (in isopropanol, 293.15 K) was 0.0568 and the solubility (mole fraction) (in isopropanol, 298.15 K) was 0.0675. It also gave a solubility (mole fraction) (in isopropanol, 303.15 K) of 0.0827, a solubility (mole fraction) (in isopropanol, 308.15 K) of 0.0988 and a solubility (mole fraction) (in isopropanol, 313.15 K) of 0.121. It also gave a solubility (mole fraction) (in isopropanol, 318.15 K) of 0.147, a solubility (mole fraction) (in isopropanol, 323.15 K) of 0.186 and a solubility (mole fraction) (in isopropanol, 328.15 K) of 0.238. It also gave a solubility (mole fraction) (in methanol, 288.15 K) of 0.109, a solubility (mole fraction) (in methanol, 293.15 K) of 0.126 and a solubility (mole fraction) (in methanol, 298.15 K) of 0.142. It also gave a solubility (mole fraction) (in methanol, 303.15 K) of 0.163, a solubility (mole fraction) (in methanol, 308.15 K) of 0.188 and a solubility (mole fraction) (in methanol, 313.15 K) of 0.219. It also gave a solubility (mole fraction) (in methanol, 318.15 K) of 0.258, a solubility (mole fraction) (in methanol, 323.15 K) of 0.312 and a solubility (mole fraction) (in methanol, 328.15 K) of 0.366. The solubility (mole fraction) (in methyl acetate, 288.15 K) was 0.00727, the solubility (mole fraction) (in methyl acetate, 293.15 K) was 0.00817 and the solubility (mole fraction) (in methyl acetate, 298.15 K) was 0.00942. The solubility (mole fraction) (in methyl acetate, 303.15 K) was 0.0119, the solubility (mole fraction) (in methyl acetate, 308.15 K) was 0.0139 and the solubility (mole fraction) (in methyl acetate, 313.15 K) was 0.0169. For the same compound, the solubility (mole fraction) (in methyl acetate, 318.15 K) was 0.0189, the solubility (mole fraction) (in methyl acetate, 323.15 K) was 0.024 and the solubility (mole fraction) (in methyl acetate, 328.15 K) was 0.0272. For the same compound, the solubility (mole fraction) (in n-butanol, 288.15 K) was 0.079, the solubility (mole fraction) (in n-butanol, 293.15 K) was 0.0902 and the solubility (mole fraction) (in n-butanol, 298.15 K) was 0.104. It also gave a solubility (mole fraction) (in n-butanol, 303.15 K) of 0.12, a solubility (mole fraction) (in n-butanol, 308.15 K) of 0.14 and a solubility (mole fraction) (in n-butanol, 313.15 K) of 0.166. It also gave a solubility (mole fraction) (in n-butanol, 318.15 K) of 0.199, a solubility (mole fraction) (in n-butanol, 323.15 K) of 0.241 and a solubility (mole fraction) (in n-butanol, 328.15 K) of 0.283. The solubility (mole fraction) (in n-pentanol, 288.15 K) was 0.0714, the solubility (mole fraction) (in n-pentanol, 293.15 K) was 0.0823 and the solubility (mole fraction) (in n-pentanol, 298.15 K) was 0.095. The solubility (mole fraction) (in n-pentanol, 303.15 K) was 0.112, the solubility (mole fraction) (in n-pentanol, 308.15 K) was 0.132 and the solubility (mole fraction) (in n-pentanol, 313.15 K) was 0.156. It also gave a solubility (mole fraction) (in n-pentanol, 318.15 K) of 0.189, a solubility (mole fraction) (in n-pentanol, 323.15 K) of 0.232 and a solubility (mole fraction) (in n-pentanol, 328.15 K) of 0.276. For the same compound, the solubility (mole fraction) (in n-propanol, 288.15 K) was 0.0872, the solubility (mole fraction) (in n-propanol, 293.15 K) was 0.101 and the solubility (mole fraction) (in n-propanol, 298.15 K) was 0.115. The solubility (mole fraction) (in n-propanol, 303.15 K) was 0.133, the solubility (mole fraction) (in n-propanol, 308.15 K) was 0.154 and the solubility (mole fraction) (in n-propanol, 313.15 K) was 0.181. It also gave a solubility (mole fraction) (in n-propanol, 318.15 K) of 0.216, a solubility (mole fraction) (in n-propanol, 323.15 K) of 0.255 and a solubility (mole fraction) (in n-propanol, 328.15 K) of 0.313. The solubility (mole fraction) (in water, 288.15 K) was 0.00217, the solubility (mole fraction) (in water, 293.15 K) was 0.00286 and the solubility (mole fraction) (in water, 298.15 K) was 0.0036. The solubility (mole fraction) (in water, 303.15 K) was 0.00471, the solubility (mole fraction) (in water, 308.15 K) was 0.00618 and the solubility (mole fraction) (in water, 313.15 K) was 0.00763. The solubility (mole fraction) (in water, 318.15 K) was 0.00961, the solubility (mole fraction) (in water, 323.15 K) was 0.012 and the solubility (mole fraction) (in water, 328.15 K) was 0.0151.
